The data set can be described thus: Static partitioning test for DME in brine and oil. Format: physicochemical. The note with it: room temperature, >12 hours equilibration, 150 psi. The source says: To measure partitioning of the miscible solvent in contact with oil and brine for a particular chemical concentration, salinity of aqueous phase, oil type, temperature, and pressure.
Load accumulator #1 with brine and accumulator #2 with oil. Apply vacuum to sapphire cell #1 and sapphire cell #2 on the loading side of the piston. Fill the opposite side with water or lab oil. Prepare loading loop with a known volume with liquid DME at room temperature (pressure >100 psi) to ensure a target concentration of DME when injected. Connect loading loop to sapphire cell #1 (vacuum side) and to accumulator #1. Connect the opposite side of the sapphire (water side) to BPR to keep pressure inside the cell at 150 psi. Then, displace DME from the loop with brine and inject into the sapphire cell #1. Isolate and disconnect the sapphire cell #1. Then, rock the cell until liquid DME and brine get properly mixed and homogenized. Equilibrate aqueous mix for a couple of hours. Connect the accumulator #2 with the sapphire cell #2, and the sapphire cell to the BPR. Then, inject oil into the sapphire cell #2. The volume of the injected oil is the one for the desired aqueous to oil ratio (i.e. 50/50 aqueous to oil by volume). Connect the sapphire cell #1 (DME in aqueous side) to the sapphire cell #2 (oil side) and inject DME in aqueous side to cell #2. The volume of the injected aqueous phase is the one for the desired aqueous to oil ratio. The pressure inside the sapphire cell # is controlled by BPR at 150 psi. Isolate and disconnect the sapphire cell #2. Then, rock the cell until liquid aqueous and oil get properly mixed. Let the cell equilibrate for 12 hours at room temperature (˜70° F.). Prepare a solution of 1:1 by volume of deionized water and methanol. Collect a sample of aqueous phase (DME in brine) from cell #2 and mix it with methanol solution in a volumetric proportion of 1:1. Measure DME concentration in aqueous mixture from previous step via gas chromatography (GC). Then, calculate partitioning of DME in between brine and oil phase, this is the partitioning coefficient.
KDME=DME partitioning coefficient; CDME,aq=mass fraction of DME in aqueous phase at equilibrium; and CDME,oil=mass fraction of DME in oleic phase at equilibrium.
Alternatively, to measuring DME concentration via GC and after isolating and disconnecting sapphire cell #2, both aqueous phase and oleic phase could be separated, and then individually taken to a PVT cell at 1 atm and 70° F. After DME evolves from each phase as gas, amounts of evolved DME could be measured and partitioning coefficient calculated.

As for `COC` [DME, dimethyl ether], the DME partition coefficient turned out to be 1.13 (0.5% DME + Methanol, Volatile Oil, salinity 115,000 ppm); 0.81 (0.5% DME, Volatile Oil, salinity 0 - DI water); 1.15 (0.5% DME, Volatile Oil, salinity 103,000 ppm); 1.27 (0.5% DME, Volatile Oil, salinity 150,000 ppm); 1.26 (0.5% DME, Volatile Oil, salinity 300,000 ppm); 1.87 (1% DME + Methanol, Black Oil, salinity 115,000 ppm). In addition, where the note is “1% DME + Methanol, Volatile Oil, salinity 115,000 ppm”, the DME partition coefficient is given as 2.4.
